Measurements reported in article PMC7279038, “Antioxidant and Neuroprotective Effects Induced by Cannabidiol and Cannabigerol in Rat CTX-TNA2 Astrocytes and Isolated Cortexes” (International Journal of Molecular Sciences, 2020).

Columns and labels:
[1] = system: calcium/calmodulin-dependent protein kinase type II subunit alpha (CAMK2A); experiment: Untargeted proteomic analysis of cortexes, CAMK2A; parameters: species or system rat; settings: CBD 1000 nM, CBG 1 nM
Description: Sprague–Dawley rats (200–250 g) were sacrificed by CO2 inhalation (Italian Health Ministry authorization N. F4738.N.XTQ, delivered on 11th November 2018) and isolated prefrontal cortex specimens were immediately explanted and incubated in thermostatic shaking bath at 37 °C for 1 h (incubation period), in Krebs–Ringer buffer at the following K^+ concentrations:
Cortexes were stimulated with CBD (1000 nM) and CBD (1 nM). Afterwards, specimens were homogenized in perchloric acid solution (0.05 M) for the extraction and quantification of nitrites, via the aforementioned colorimetric Griess assay, and serotonin (5-HT), 5-hydroxyindoleacetic (5HIIA),3-hydroxykinurenine (3-HK) and kinurenic acid (KA) (ng/mg wet tissue) via high performance liquid chromatography analysis. Additionally, an untargeted proteomic analysis was carried out on the cortex homogenate. The analytical protocols for 5-HT, 5HIIA, 3-HK, KA and protein level determinations are described below. […]
After protein quantification, a volume corresponding to 50 μg of proteins was loaded onto a Nanosep 10-kDa-cutoff filter (Pall Corporation, Michigan, USA) and digested according to the protocol we routinely use in our laboratory, adapted from Distler et al. Briefly, the sample was washed twice with 200 μL urea buffer (8M urea, 100 mM Tris pH 8.5 in milliQ water) to remove the detergents present in the lysis buffer. […]

hypothalamic 5-HT = system: hypothalamic 5-HT; parameters: method as in PMID 31941059; settings: cited from earlier work
rat hypothalamic neurons = system: rat hypothalamic neurons; parameters: method as in PMID 31941059; settings: ex vivo model, hydrogen peroxide; cited from earlier work

SMILES | effect on K+ 60 mM-induced reduction in CAMK2A level [1] | basal hypothalamic 5-HT levels (hypothalamic 5-HT) | neuroprotection (rat hypothalamic neurons)
C=C(C)[C@@H]1CCC(C)=C[C@H]1c1c(O)cc(CCCCC)cc1O [CBD, Cannabidiol] | blocking the downregulation | stimulate basal hypothalamic 5-HT levels | 
CCCCCc1cc(O)c(C/C=C(\C)CCC=C(C)C)c(O)c1 [CBG, cannabigerol] | completely ineffective |  | neuroprotection only at low concentrations
